According to patent publication US4831053A, “Composition for prophylaxis and therapy of hepatitis” (Otsuka Pharmaceutical Co., Ltd., priority 1979, dated 1989):

Legend:
[1] = system: complement; assay: Anti-complement activity
Experimental: A 30-liter jar fermentor was charged with 20 liters of a culture medium of the above formulation, and one flask of the resulting seed culture was cultivated in the culture medium at 28° C. for 5 days with stirring at 300 rpm at an aeration rate of 1 liter per liter of the culture medium per minute. The resulting culture broth was centrifuged at a speed of 8,000 rpm to remove the microbial cells. To the supernatant liquid was added 5 liters of methanol, and the mixture was stirred and then allowed to stand for 3 hours. The mixture was centrifuged and the solid material was removed. The supernatant was extracted with an equal quantity, by volume, of ethyl acetate. The solvent of the ethyl acetate layer was distilled off under reduced pressure. The residue was dissolved in methanol, and passed through a column of activated carbon. The eluate was concentrated to dryness under reduced pressure. The dried mass was dissolved in a mixture of chloroform and ethyl acetate (1:1, v/v) and gel-filtered through a column of Sephadex LH-20. […] The compound had the following physicochemical characteristics.

[2] = system: fulminant hepatitis (Schwarzman hepatitis); assay: Schwarzman hepatitis (endotoxin-induced fulminant hepatitis): serum GOT and LDH levels, liver sections; type: in vivo, S.D. strain rats
Experimental: The test for evaluating the prophylactic and therapeutic effect of the compound represented by the formula (I) or (II) was conducted in accordance with the method of Mori et al., Kanzo, Vol. 17, pp. 580-589 (1976), using S.D. strain rats having a body weight of about 300 g as test animals, and causing fulminant hepatitis (Schwarzman hepatitis) to occur. More particularly, 4 test groups, each consisting of 5 S.D. strain rats, were administered 0.1 mg/body of endotoxin (LPS: E. coli 0.26: B6, a product of Difco Co.) peritoneally (by injection), and after 48 hours the same endotoxin preparation was administered by injection to each group at a dosage of 0.05, 0.2, 0.5 or 1.2 mg/body for boostering. On the other hand, 5 mg/body of the active ingredient of the agent of this invention was administered peritoneally by injection once a day for 6 days. This treatment was initiated 2 days before the first administration of endotoxin took place and ended on the day after the second administration of endotoxin for boostering. The test animals were victimized (i.e., destroyed and analyzed) 48 hours after the second administration of endotoxin, and the levels of GOT and LDH in the serum of the victimized rats were determined using a UV method described in American Journal of Clinical Pathology, Vol. 47, pp. 419-428 (1967) and Cancer Research, Vol. 14, pp. 513-515 (1954). In addition, degree of occurrence of hepatic necrosis and distribution of endotoxin in the liver were obseved microscopically using sections of liver of the victimized animals. The compound obtained in Synthesis Example 2 was used as the active ingredient. The same procedure was repeated on animals of 4 control groups which were not administered the active ingredient. The levels of GOT and of LDH in the serum determined for the group which received endotoxin boostering amount of 0.5 mg/body at the second administration and for the control group are shown in FIGS. 1 and 2, respectively. In FIGS. 1 and 2, the symbol o indicates the values obtained for each test animal in the group. Evaluation of the results was made based on the average value ± an error obtained by statistical treatment thereof. […] The sections of livers of the test animals of the same groups as above were observed using the fluorescence antibody method described in Journal of Experimental Medicine, Vol. 91, pp. 1-13 (1950).

[3] = Acute toxicity (intravenous); settings: in vivo, rat
Experimental: The acute toxicity of the compound obtained in Synthesis Example 2 was determined by administering it intravenously to rat. The LD50 value obtained was 500 mg/kg.

[4] = Tautomer equilibrium in solution (NMR); type: physicochemical; settings: methanol or pyridine as solvent
Experimental: Integration of the areas under the peak signals indicates a proportion of the former to the latter of about 73:27. After 2 hours the peak at 9.89 ppm increase further to an extent that the integrated proportions become about 70:30, and this proportion remains unchanged according to NMR analysis even after 63 hours. From this it follows that the compound represented by formula (I) and that represented by formula (II) are present in a molar proportion of about 7:3 in the solution. However, when methanol or pyridine is used as a solvent, the compound of formula (II) is not formed.

[5] = system: chronic hepatitis; assay: Clinical data: patient with chronic hepatitis, GOT, GPT and serum bilirubin before and after administration; type: in vivo; settings: human, oral, about 500 mg twice a day
Experimental: This treatment was continued for 2 months.
The levels of glutamic oxalacetic transaminase (GOT), glutamic pyruvic transaminase (GPT) and serum bilirubin (SB) were determined according to the conventional methods described in Am. J. Clin. Path., 28, 56-63 (1957) (for GOT and GPT) and in J. Biol. Chem., 119, 481-490 (1937) (for SB), and compared with the data obtained before the administration, as shown in Table below.

[6] = microscopic observation of liver sections (×100), FIG. 3b
[7] = rat, 5 mg/body i.p. once a day for 6 days, endotoxin booster 0.5 mg/body, vs control group

CC1CCC2C(C)(C)C(O)C(O)CC2(C)C12Cc1c(O)cc(C=O)c(C=O)c1O2 (stereo not shown) [Synthesis Example 1, 6,7-dihydroxy-2,5,5,8a-tetramethyl-1,2,3,4,4a,5,6,7,8,8a-decahydronaphthalene-1-spiro-2'-(6',7'-diformyl-4'-hydroxy-2',3'-dihydrobenzofuran)]
anti-complement activity [1]: having an anti-complement activity

CC1CCC2C(C)(C)C(O)C(O)CC2(C)C12Cc1c(O)cc3c(c1O2)C(O)OC3=O (stereo not shown) [Synthesis Example 2, 4,8-dihydroxy-6-oxo-2,3,6,8-tetrahydro-furo[3,4-g]benzofuran-2-spiro-1'-(6',7'-dihydroxy-2',5',5',8'a-tetramethyl-1',2',3',4',4'a,5',6',7',8',8'a-decahydronaphthalene)]
distribution of endotoxin in the liver ([2]; fluorescence antibody method, liver sections, FIG. 4b): strongly localized in Kupffer cells but scarcely outside the cells | degree of cell degeneration of liver cells [2, 6]: very slight | occurrence of damage of cells of liver [2, 6]: significantly inhibited or such damage was substantially cured | level of GOT in the serum [2, 7]: significantly lower than those of the control group | level of LDH in the serum [2, 7]: significantly lower than those of the control group | occurrence of fulminant hepatitis (Schwarzman hepatitis) ([2]; rat, 5 mg/body i.p. once a day for 6 days, from GOT and LDH levels): significantly inhibits the occurrence of fulminant hepatitis | LD50 [3]: 500 mg/kg | formation of compound of formula (II) in solution [4]: not formed

CC1CCC2C(C)(C)C(O)C(O)CC2(C)C12Cc1c(O)cc(C(=O)O)c(C=O)c1O2 (stereo not shown) [Synthesis Example 3, disodium 6,7-dihydroxy-2,5,5,8a-tetramethyl-1,2,3,4,4a,5,6,7,8,8a-decahydronaphthalene-1-spiro-2'-(6'-carboxylate-7'-formyl-4'-oxide-2',3'-dihydrobenzofuran)]
feeling with respect to fatigue and loss of strength ([5]; 2 months, described by patient): considerably improved feeling | SB (serum bilirubin) ([5]; after administration (2 months), before: 2.6): 1.5 mg/dL | GPT ([5]; after administration (2 months), before: 143): 67 unit | GOT ([5]; after administration (2 months), before: 180): 45 unit
